{
  "source": "patent US5223178A",
  "about": "(priority 1990, dated 1993)",
  "key": {"[1]": {"tested_on": "Cladisporium resinae", "test": "PDA plate mycelial radial growth inhibition (paint film mildew fungi), Table 2", "format": "cell-based", "settings": "read-out: EC50 (concentration giving 50% control of hyphal growth)", "experimental": "(§1) The test was run as follows. Potato dextrose agar (PDA) was dissolved in water (30 g PDA/1) and autoclaved at 15 psi for 15 minutes. PDA was purchased from Difco. Triazoles were dissolved in a small quantity of methanol and added to autoclaved, molten potato dextrose agar in a dilution series to give 0.01, 0.1, 1, 10 and 100 ug ml^-1. Final methanol content of the highest dose was included. The molten agar was pipetted into Petri plates (15 ml per plate) and allowed to set. Two 5 mm mycelial plugs were removed from mother cultures of each of the fungal species tested, and were placed near the edge of the test plates. When colonies were 10-40 mm in diameter, the radial mycelial growth was measured and EC75 values were determined on log-probit paper.\n(§2) EC50 values (concentration giving 50% control of hyphal growth) are reported."}, "[2]": {"tested_on": "Aureobasidum pullulans", "test": "PDA plate mycelial radial growth inhibition (paint film mildew fungi), Table 2", "format": "cell-based", "settings": "read-out: EC50 (concentration giving 50% control of hyphal growth)", "experimental": "as §1, §2"}, "[3]": {"tested_on": "Aspergillus flavus", "test": "PDA plate mycelial radial growth inhibition (paint film mildew fungi), Table 2", "format": "cell-based", "settings": "read-out: EC50 (concentration giving 50% control of hyphal growth)", "experimental": "as §1, §2"}, "[4]": {"tested_on": "Trametes Versicolor", "test": "Wood decay fungi radial growth inhibition on PDA, Table 7", "format": "cell-based", "settings": "room temperature, read-out: EC50 (concentration giving 50% control of hyphal growth)", "experimental": "(§3) The test was run as follows. Potato dextrose agar (PDA) was dissolved in water (39 g/l) and autoclaved at 15 psi for 15 min. PDA was purchased from Difco. The triazole was dissolved in a small quantity of dimethylsulfoxide (DMSO) and diluted to appropriate concentrations with the same solvent. Ten microliters of the appropriate solution was added to each of five wells of a Falcon 6 well tissue culture dish. To the sixth well was added ten microliters of DMSO as a control. Five ml of molten PDA was then added to each of the wells to give […] μg ml-1 of triazole. The plate was gently agitated to afford a uniform mixture. Upon cooling, the dishes were inoculated with a six mm agar plug from a freshly grown culture of the test organism. The assay plates were then incubated at room temperature and evaluated when the radial growth in the control well had reached approximately 30 mm. The radial growth for the treated wells was measured and the growth inhibition and EC50 values were calculated using non-linear regression analysis. Data are shown in Table 7 for triazoles VIII and IX (Table). EC50 values (concentration giving 50% control of hyphal growth) are reported."}, "[5]": {"tested_on": "Gloeophyllum tradeum", "test": "Wood decay fungi radial growth inhibition on PDA, Table 7", "format": "cell-based", "settings": "read-out: EC50 (concentration giving 50% control of hyphal growth)", "experimental": "as §3"}, "[6]": {"tested_on": "Phialophora mutabilis", "test": "Wood decay fungi radial growth inhibition on PDA, Table 7", "format": "cell-based", "settings": "Coniochaeta mutabilis, room temperature, read-out: EC50 (concentration giving 50% control of hyphal growth)", "experimental": "as §3"}, "[7]": {"tested_on": "Poria placenta", "test": "Wood decay fungi radial growth inhibition on PDA, Table 7", "format": "cell-based", "settings": "room temperature, read-out: EC50 (concentration giving 50% control of hyphal growth)", "experimental": "as §3"}, "[8]": {"tested_on": "Piricularia oryzae", "test": "microbe, parasite or virus in culture", "format": "cell-based", "settings": "72 h"}, "[9]": {"tested_on": "Aspergillus niger", "test": "Paint film mildewcide popsickle stick test, Table 6", "settings": "A. niger, 10 days, 30° C., 95% RH", "experimental": "(§4) Testing is described below.\n(§5) Testing was done in a commercial acrylic-based latex paint with conventional pigments, dispersants, and the like. Texanol (R) is trimethyl-1,3-pentanediol monisobutyrate supplied by Eastman Chemical. \"Latex\" is a latex of a copolymer of butyl acrylate and methyl methacrylate.\n(§6) To a sealable container was charged 100 parts of the paint formulation and the desired triazole concentration. The sample was homogenized for 15 minutes each, then blended and remixed.\n(§7) Three triazoles were evaluated for their effectiveness as paint film mildewcides at […] and 10 lbs/100 gallons in a laboratory popsickle stick test. Untreated controls were included in the test.\n(§8) Duplicate popsickle sticks painted with the treated and untreated paint sample were inoculated with Aureobasidium pullulans and Aspergillus niger. The sticks were inoculated for 10 days at 30° C. and 95% RH and samples were rated for fungal growth."}, "[10]": {"tested_on": "Aureobasidium pullulans", "test": "Paint film mildewcide popsickle stick test, Table 6", "settings": "A. pullulans, 10 days, 30° C., 95% RH", "experimental": "as §4, §5, §6, §7, §8"}, "[11]": {"tested_on": "Alternaria solani", "test": "PDA plate mycelial radial growth inhibition (paint film mildew fungi), Table 1", "format": "cell-based", "settings": "PDA plates, read-out: EC75 (concentration giving 75% control of hyphal growth)", "experimental": "as §1\nEC75 values (concentration giving 75% control of hyphal growth) are reported."}, "[12]": {"settings": "pH 3.5, read-out: EC90 for mycelial growth"}, "[13]": {"settings": "pH 4.8, read-out: EC90 for mycelial growth"}, "[14]": {"settings": "pH 5.4, read-out: EC90 for mycelial growth"}, "[15]": {"settings": "pH 6.3, read-out: EC90 for mycelial growth"}, "[16]": {"settings": "pH 7.2, read-out: EC90 for mycelial growth"}, "[17]": {"settings": "pH 7.7, read-out: EC90 for mycelial growth"}, "[18]": {"settings": "pH 8.7, read-out: EC90 for mycelial growth"}, "[19]": {"settings": "pH 9.8, read-out: EC90 for mycelial growth"}, "[20]": {"settings": "pH 11.2, read-out: EC90 for mycelial growth"}},
  "note": "Where two headings read alike, the source gives them in different places.",
  "data": [
    {"smiles": "CCCCC(C#N)(Cn1cncn1)c1ccc(Cl)cc1", "note": "(stereo not drawn) [Structure IX, α-n-butyl-α-4-chlorophenyl-1H-1,2,4-triazole-1-propanenitrile]", "values": [
      {"measurement": "EC50", "setting": "[1]", "result": 1.7, "unit": "µg/mL"},
      {"measurement": "EC50", "setting": "[2]", "result": 0.5, "unit": "µg/mL"},
      {"measurement": "EC50", "setting": "[3]", "result": 1.2, "unit": "µg/mL"},
      {"measurement": "EC50", "setting": "[4]", "result": 0.118, "unit": "µg/mL"},
      {"measurement": "EC50", "setting": "[5]", "result": 0.313, "unit": "µg/mL"},
      {"measurement": "EC50", "setting": "[6]", "result": 1.45, "unit": "µg/mL"},
      {"measurement": "EC50", "setting": "[7]", "result": 0.228, "unit": "µg/mL"}
    ]},
    {"smiles": "CCCCC(C#N)(Cn1cncn1)c1ccc(Cl)cc1", "note": "(stereo not drawn) [II, α-n-butyl-α-4-chlorophenyl-1H-1,2,4-triazole-1-propanenitrile]", "values": [
      {"measurement": "EC90", "setting": "[8]; [12]", "result": 5, "unit": "µg/mL"},
      {"measurement": "EC90", "setting": "[8]; [13]", "result": 4.5, "unit": "µg/mL"},
      {"measurement": "EC90", "setting": "[8]; [14]", "result": 4.5, "unit": "µg/mL"},
      {"measurement": "EC90", "setting": "[8]; [15]", "result": 4.5, "unit": "µg/mL"},
      {"measurement": "EC90", "setting": "[8]; [16]", "result": 4.5, "unit": "µg/mL"},
      {"measurement": "EC90", "setting": "[8]; [17]", "result": 4.5, "unit": "µg/mL"},
      {"measurement": "EC90", "setting": "[8]; [18]", "result": 5, "unit": "µg/mL"},
      {"measurement": "EC90", "setting": "[8]; [19]", "result": 4.5, "unit": "µg/mL"},
      {"measurement": "EC90", "setting": "[8]; [20]", "result": 4.5, "unit": "µg/mL"},
      {"measurement": "Fungal growth rating", "setting": "[9]; replicate 1, 1 lbs/100 gal", "result": "3+"},
      {"measurement": "Fungal growth rating", "setting": "[9]; replicate 1, 5 lbs/100 gal", "result": "2+"},
      {"measurement": "Fungal growth rating", "setting": "[9]; replicate 1, 10 lbs/100 gal", "result": "1+"},
      {"measurement": "Fungal growth rating", "setting": "[9]; replicate 2, 1 lbs/100 gal", "result": "2+"},
      {"measurement": "Fungal growth rating", "setting": "[10]; replicate 1, 1 lbs/100 gal", "result": "3+"},
      {"measurement": "Fungal growth rating", "setting": "[10]; replicate 1, 5 lbs/100 gal", "result": "2+"},
      {"measurement": "Fungal growth rating", "setting": "[10]; replicate 1, 10 lbs/100 gal", "result": "2+"},
      {"measurement": "Fungal growth rating", "setting": "[10]; replicate 2, 1 lbs/100 gal", "result": "4+"},
      {"measurement": "Fungal growth rating", "setting": "[10]; replicate 2, 5 lbs/100 gal", "result": "2+"},
      {"measurement": "Fungal growth rating", "setting": "[10]; replicate 2, 10 lbs/100 gal", "result": "1+"}
    ]},
    {"smiles": "N#CC(CCc1ccc(Cl)cc1)(Cn1cncn1)c1ccccc1", "note": "(stereo not drawn) [Structure VIII, α-[2-(4-chlorophenyl)ethyl]-α-phenyl-1H-1,2,4-triazole-1-propanenitrile]", "values": [
      {"measurement": "EC50", "setting": "[1]", "result": 0.025, "unit": "µg/mL"},
      {"measurement": "EC50", "setting": "[3]", "result": 3.5, "unit": "µg/mL"},
      {"measurement": "EC50", "setting": "[4]", "result": 0.061, "unit": "µg/mL"},
      {"measurement": "EC50", "setting": "[5]", "result": 0.158, "unit": "µg/mL"},
      {"measurement": "EC50", "setting": "[6]", "result": 0.612, "unit": "µg/mL"},
      {"measurement": "EC50", "setting": "[7]", "result": 0.175, "unit": "µg/mL"}
    ]},
    {"smiles": "N#CC(CCc1ccc(Cl)cc1)(Cn1cncn1)c1ccccc1", "note": "(stereo not drawn) [I, α-[2-(4-chlorophenyl)ethyl]-α-phenyl-1H-1,2,4-triazole-1-propanenitrile]", "values": [
      {"measurement": "EC90", "setting": "[8]; [12]", "result": 0.5, "unit": "µg/mL"},
      {"measurement": "EC90", "setting": "[8]; [13]", "result": 0.1, "unit": "µg/mL"},
      {"measurement": "EC90", "setting": "[8]; [14]", "result": 0.1, "unit": "µg/mL"},
      {"measurement": "EC90", "setting": "[8]; [15]", "result": 0.1, "unit": "µg/mL"},
      {"measurement": "EC90", "setting": "[8]; [16]", "result": 0.1, "unit": "µg/mL"},
      {"measurement": "EC90", "setting": "[8]; [17]", "result": 0.1, "unit": "µg/mL"},
      {"measurement": "EC90", "setting": "[8]; [18]", "result": 0.1, "unit": "µg/mL"},
      {"measurement": "EC90", "setting": "[8]; [19]", "result": 0.1, "unit": "µg/mL"},
      {"measurement": "EC90", "setting": "[8]; [20]", "result": 0.1, "unit": "µg/mL"},
      {"measurement": "Fungal growth rating", "setting": "[9]; replicate 1, 1 lbs/100 gal", "result": "4+"},
      {"measurement": "Fungal growth rating", "setting": "[9]; replicate 1, 5 lbs/100 gal", "result": "4+"},
      {"measurement": "Fungal growth rating", "setting": "[9]; replicate 1, 10 lbs/100 gal", "result": "3+"},
      {"measurement": "Fungal growth rating", "setting": "[9]; replicate 2, 1 lbs/100 gal", "result": "4+"},
      {"measurement": "Fungal growth rating", "setting": "[9]; replicate 2, 5 lbs/100 gal", "result": "3+"},
      {"measurement": "Fungal growth rating", "setting": "[9]; replicate 2, 10 lbs/100 gal", "result": "3+"},
      {"measurement": "Fungal growth rating", "setting": "[10]; replicate 1, 1 lbs/100 gal", "result": "2+"},
      {"measurement": "Fungal growth rating", "setting": "[10]; replicate 2, 1 lbs/100 gal", "result": "2+"},
      {"measurement": "EC75", "setting": "[11]", "result": 5, "unit": "µg/mL"}
    ]}
  ]
}
